Reference: patent US20240122857A1, “PHARMACEUTICAL FORMULATIONS OF INDOLEAMINE 2, 3-DIOXYGENASE INHIBITORS” (BRISTOL-MYERS SQUIBB COMPANY, priority 2019, published 2024)
Where a name gives a salt, the structure may show the parent alone.

Assay: Excipient compatibility study
Format: physicochemical

SMILES: C[C@@H](C(=O)Nc1ccc(Cl)cc1)[C@H]1CC[C@@H](c2ccnc3ccc(F)cc32)CC1 [Compound I-MSA, (R)—N-(4-chlorophenyl)-2-((1S, 4S)-4-(6-fluoroquinolin-4-yl)cyclohexyl) propanamide methane sulfonic acid salt]
- chemical stability with commonly used pharmaceutical excipients: acceptable chemical stability
